Data taken from PMC6704710, “Preclinical evaluation of 3D185, a novel potent inhibitor of FGFR1/2/3 and CSF-1R, in FGFR-dependent and macrophage-dominant cancer models” (Journal of Experimental & Clinical Cancer Research : CR, 2019).

Assays:
Assay in all cases: Eurofins kinase panel
Type in all cases: biochemical
Settings in all cases: read-out: Inhibition rate (%)
EphA5(h) = target: T1, EphA5(h) (Homo sapiens, UniProt P54756)
T1 construct: purchased Eurofins (KinaseProfiler)

Ron(h) = target: T2, Ron(h) (Homo sapiens, UniProt Q04912)
T2 construct: purchased Eurofins (KinaseProfiler)

CDK1/cyclinB(h) = target: T3, CDK1/cyclinB(h) (Homo sapiens, UniProt P06493)
T3 construct: purchased Eurofins (KinaseProfiler)

Txk(h) = target: T4, Txk(h) (Homo sapiens, UniProt P42681)
T4 construct: purchased Eurofins (KinaseProfiler)
T4 sequence (P42681 1-527): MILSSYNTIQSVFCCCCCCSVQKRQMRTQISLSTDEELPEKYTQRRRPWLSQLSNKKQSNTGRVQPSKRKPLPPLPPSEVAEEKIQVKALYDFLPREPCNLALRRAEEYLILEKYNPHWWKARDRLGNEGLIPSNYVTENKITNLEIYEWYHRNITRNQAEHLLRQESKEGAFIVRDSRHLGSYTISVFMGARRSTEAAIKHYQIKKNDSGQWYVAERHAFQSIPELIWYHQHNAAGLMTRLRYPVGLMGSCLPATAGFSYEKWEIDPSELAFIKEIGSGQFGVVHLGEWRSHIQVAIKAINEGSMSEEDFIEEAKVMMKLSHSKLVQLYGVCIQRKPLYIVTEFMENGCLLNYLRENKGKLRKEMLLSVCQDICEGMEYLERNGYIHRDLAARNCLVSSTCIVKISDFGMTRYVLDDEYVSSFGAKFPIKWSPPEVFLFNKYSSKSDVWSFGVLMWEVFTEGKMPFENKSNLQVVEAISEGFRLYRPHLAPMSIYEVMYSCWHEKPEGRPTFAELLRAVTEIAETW

DDR1(h) = target: T5, DDR1(h) (Homo sapiens, UniProt Q08345)
T5 construct: purchased Eurofins (KinaseProfiler)

NLK(h) = target: T6, NLK(h) (Homo sapiens, UniProt Q9UBE8)
T6 construct: purchased Eurofins (KinaseProfiler)
T6 sequence (Q9UBE8 1-527): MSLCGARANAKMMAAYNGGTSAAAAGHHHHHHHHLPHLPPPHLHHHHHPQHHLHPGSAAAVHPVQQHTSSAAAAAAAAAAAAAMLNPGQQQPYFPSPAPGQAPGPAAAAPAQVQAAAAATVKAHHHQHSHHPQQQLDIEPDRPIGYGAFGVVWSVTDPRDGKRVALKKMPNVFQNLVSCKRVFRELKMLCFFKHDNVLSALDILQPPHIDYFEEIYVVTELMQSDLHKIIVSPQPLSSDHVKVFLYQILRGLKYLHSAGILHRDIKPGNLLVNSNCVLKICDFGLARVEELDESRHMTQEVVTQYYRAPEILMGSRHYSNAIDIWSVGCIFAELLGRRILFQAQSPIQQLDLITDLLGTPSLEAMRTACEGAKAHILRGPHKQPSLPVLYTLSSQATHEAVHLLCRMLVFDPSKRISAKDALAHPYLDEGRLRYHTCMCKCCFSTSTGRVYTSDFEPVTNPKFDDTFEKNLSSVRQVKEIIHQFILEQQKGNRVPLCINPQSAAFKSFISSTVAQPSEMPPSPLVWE

CaMKK2(h) = target: T7, CaMKK2(h) (Homo sapiens, UniProt Q96RR4)
T7 construct: purchased Eurofins (KinaseProfiler)

Aurora-B(h) = target: T8, Aurora-B(h) (Homo sapiens, UniProt Q96GD4)
T8 construct: purchased Eurofins (KinaseProfiler)

STK33(h) = target: T9, STK33(h) (Homo sapiens, UniProt Q9BYT3)
T9 construct: purchased Eurofins (KinaseProfiler)

c-RAF(h) = target: T10, c-RAF(h) (Homo sapiens, UniProt P04049)
T10 construct: purchased Eurofins (KinaseProfiler)

STK32C(h) = target: T11, STK32C(h) (Homo sapiens, UniProt Q86UX6)
T11 construct: purchased Eurofins (KinaseProfiler)

Wee1B(h) = target: T12, Wee1B(h) (Homo sapiens, UniProt P0C1S8)
T12 construct: purchased Eurofins (KinaseProfiler)

PAK3(h) = target: T13, PAK3(h) (Homo sapiens, UniProt O75914)
T13 construct: purchased Eurofins (KinaseProfiler)

MKK7β(h) = target: T14, MKK7β(h) (Homo sapiens, UniProt O14733)
T14 construct: purchased Eurofins (KinaseProfiler)
T14 sequence (O14733 1-419): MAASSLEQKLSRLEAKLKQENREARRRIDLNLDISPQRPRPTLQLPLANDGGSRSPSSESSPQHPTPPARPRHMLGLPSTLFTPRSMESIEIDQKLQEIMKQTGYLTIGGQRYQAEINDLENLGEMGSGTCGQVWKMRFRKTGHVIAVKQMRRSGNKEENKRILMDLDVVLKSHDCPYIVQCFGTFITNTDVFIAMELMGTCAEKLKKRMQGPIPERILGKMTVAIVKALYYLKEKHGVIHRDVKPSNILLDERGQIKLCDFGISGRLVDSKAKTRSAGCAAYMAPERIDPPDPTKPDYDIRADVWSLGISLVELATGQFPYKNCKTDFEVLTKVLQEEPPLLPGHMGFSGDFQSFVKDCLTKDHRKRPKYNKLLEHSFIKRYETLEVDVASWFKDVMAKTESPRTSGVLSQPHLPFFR

T7 sequence (Q96RR4 whole entry): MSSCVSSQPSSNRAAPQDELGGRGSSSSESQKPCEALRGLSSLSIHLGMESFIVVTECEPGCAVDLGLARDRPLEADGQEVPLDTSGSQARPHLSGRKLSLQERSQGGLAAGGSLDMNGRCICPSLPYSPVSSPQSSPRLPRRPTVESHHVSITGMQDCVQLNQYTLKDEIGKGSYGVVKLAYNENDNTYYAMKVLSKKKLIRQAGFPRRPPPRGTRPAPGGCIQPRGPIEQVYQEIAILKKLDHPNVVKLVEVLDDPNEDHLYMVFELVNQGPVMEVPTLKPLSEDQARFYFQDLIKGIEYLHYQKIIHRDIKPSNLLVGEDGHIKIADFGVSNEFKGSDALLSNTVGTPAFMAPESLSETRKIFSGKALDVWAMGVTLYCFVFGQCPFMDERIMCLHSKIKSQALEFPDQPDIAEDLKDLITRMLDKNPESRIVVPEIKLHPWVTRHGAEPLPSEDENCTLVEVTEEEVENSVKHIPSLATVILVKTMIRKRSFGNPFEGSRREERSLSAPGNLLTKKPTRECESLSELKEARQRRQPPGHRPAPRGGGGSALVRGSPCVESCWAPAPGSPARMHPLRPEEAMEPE
T9 sequence (Q9BYT3 whole entry): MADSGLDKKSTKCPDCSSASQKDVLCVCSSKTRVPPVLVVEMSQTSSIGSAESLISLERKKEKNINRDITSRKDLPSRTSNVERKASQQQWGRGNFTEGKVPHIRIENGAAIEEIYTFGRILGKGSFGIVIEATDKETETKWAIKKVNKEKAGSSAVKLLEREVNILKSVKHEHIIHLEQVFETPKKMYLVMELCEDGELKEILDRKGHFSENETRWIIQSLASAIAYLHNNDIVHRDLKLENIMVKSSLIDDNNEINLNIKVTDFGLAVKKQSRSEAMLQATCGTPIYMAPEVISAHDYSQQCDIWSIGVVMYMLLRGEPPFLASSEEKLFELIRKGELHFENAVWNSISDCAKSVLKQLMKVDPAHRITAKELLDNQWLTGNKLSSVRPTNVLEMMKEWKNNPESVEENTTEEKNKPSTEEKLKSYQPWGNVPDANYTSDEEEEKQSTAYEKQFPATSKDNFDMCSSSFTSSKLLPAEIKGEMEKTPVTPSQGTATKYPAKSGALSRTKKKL
T8 sequence (Q96GD4 whole entry): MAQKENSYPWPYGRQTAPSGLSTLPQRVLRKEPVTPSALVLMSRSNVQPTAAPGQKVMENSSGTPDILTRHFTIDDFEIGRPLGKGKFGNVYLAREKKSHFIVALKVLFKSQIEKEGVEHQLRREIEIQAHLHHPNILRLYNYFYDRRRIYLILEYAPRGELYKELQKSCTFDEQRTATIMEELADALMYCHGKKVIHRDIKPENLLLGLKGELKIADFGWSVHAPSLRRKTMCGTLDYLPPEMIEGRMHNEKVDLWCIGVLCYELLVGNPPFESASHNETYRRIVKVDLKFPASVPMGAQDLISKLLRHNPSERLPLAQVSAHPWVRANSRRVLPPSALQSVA
T12 sequence (P0C1S8 whole entry): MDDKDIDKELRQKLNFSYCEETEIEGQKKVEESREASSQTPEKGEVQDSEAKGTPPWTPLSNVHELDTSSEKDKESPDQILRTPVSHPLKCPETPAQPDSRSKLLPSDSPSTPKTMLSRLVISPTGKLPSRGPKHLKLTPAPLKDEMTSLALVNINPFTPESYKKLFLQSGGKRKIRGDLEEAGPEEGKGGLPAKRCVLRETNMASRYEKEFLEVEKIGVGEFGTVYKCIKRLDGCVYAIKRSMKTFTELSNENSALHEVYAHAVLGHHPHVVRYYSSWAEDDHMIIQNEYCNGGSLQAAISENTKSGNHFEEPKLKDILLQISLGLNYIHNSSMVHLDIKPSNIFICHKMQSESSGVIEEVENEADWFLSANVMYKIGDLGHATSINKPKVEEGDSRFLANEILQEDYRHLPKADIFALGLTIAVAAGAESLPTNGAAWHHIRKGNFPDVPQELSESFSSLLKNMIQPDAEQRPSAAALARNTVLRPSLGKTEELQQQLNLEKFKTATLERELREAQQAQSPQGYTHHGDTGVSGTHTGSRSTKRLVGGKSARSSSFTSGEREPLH
T10 sequence (P04049 whole entry): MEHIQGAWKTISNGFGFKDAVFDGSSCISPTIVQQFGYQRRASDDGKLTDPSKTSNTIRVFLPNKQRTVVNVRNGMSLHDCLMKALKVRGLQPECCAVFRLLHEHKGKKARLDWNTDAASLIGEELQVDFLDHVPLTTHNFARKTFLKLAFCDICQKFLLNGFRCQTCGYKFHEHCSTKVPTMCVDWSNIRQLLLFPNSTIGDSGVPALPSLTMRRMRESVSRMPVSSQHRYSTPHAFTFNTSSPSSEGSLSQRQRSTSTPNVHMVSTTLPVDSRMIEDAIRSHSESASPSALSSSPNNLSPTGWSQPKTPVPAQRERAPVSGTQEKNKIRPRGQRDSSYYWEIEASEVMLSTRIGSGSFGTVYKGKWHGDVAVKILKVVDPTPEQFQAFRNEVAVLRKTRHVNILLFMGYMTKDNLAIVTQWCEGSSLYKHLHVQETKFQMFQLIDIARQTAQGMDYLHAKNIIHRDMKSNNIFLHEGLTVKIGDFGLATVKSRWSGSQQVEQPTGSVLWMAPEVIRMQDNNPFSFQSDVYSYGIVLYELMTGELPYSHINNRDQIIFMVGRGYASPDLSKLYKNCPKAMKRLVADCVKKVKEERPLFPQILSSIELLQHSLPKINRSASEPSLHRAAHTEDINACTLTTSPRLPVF
T5 sequence (Q08345 19-913): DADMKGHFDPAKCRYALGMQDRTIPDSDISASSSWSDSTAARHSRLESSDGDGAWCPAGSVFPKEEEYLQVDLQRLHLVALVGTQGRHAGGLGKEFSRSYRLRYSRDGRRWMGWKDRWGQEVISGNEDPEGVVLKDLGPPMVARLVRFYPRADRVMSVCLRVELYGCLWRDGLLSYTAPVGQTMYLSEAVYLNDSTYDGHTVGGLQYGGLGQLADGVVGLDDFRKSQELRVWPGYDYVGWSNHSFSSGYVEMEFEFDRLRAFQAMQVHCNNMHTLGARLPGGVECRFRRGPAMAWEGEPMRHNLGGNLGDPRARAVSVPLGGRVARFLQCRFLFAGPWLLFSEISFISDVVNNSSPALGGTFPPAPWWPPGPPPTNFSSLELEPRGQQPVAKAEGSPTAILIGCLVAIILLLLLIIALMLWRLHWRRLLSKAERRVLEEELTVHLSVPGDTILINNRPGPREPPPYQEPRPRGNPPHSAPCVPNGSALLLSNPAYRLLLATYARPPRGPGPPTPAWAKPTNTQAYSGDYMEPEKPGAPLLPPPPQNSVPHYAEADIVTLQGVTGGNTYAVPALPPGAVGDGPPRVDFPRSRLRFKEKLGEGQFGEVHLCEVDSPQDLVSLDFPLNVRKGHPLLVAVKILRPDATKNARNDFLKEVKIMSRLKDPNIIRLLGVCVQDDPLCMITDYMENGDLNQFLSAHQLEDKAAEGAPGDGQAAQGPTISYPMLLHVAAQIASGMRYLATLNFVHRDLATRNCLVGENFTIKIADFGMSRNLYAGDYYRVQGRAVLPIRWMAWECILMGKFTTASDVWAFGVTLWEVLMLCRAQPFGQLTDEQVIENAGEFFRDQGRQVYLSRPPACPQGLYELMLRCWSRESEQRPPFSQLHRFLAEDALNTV
T11 sequence (Q86UX6 whole entry): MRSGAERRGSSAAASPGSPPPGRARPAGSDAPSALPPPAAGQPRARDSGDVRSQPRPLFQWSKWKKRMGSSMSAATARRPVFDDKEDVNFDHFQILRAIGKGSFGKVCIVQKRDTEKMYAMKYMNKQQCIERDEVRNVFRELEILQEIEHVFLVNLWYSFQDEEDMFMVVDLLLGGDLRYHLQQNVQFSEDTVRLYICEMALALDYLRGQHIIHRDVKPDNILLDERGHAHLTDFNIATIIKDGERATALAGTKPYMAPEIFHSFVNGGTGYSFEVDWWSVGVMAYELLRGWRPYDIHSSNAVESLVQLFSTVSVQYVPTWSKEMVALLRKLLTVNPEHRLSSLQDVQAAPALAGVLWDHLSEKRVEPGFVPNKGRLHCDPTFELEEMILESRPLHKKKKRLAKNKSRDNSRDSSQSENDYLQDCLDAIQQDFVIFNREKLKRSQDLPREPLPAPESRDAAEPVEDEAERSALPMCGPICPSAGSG
T13 sequence (O75914 whole entry): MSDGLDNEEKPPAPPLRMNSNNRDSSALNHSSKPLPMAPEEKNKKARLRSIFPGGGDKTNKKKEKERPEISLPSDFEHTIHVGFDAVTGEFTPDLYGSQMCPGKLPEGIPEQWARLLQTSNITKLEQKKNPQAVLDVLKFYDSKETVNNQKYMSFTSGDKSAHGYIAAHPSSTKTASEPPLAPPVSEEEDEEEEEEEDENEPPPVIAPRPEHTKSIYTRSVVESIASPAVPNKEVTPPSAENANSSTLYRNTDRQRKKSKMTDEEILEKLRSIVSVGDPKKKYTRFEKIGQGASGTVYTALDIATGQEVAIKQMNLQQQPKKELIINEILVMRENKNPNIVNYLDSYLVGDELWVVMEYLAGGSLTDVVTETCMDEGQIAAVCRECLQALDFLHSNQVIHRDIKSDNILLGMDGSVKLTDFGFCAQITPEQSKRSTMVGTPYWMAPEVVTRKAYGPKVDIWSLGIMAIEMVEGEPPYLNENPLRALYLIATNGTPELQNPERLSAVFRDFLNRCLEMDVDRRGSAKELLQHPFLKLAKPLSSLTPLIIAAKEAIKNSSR

COc1cc(OC)c(Cl)c(-c2ccc3c(NC(=O)c4ccc(N5CCNC(C)(C)C5)cc4)n[nH]c3n2)c1Cl [3D185]
inhibition at 0.01 µM (EphA5(h); 10 nM): 11%
inhibition at 0.1 µM (EphA5(h); 100 nM): 10%
inhibition at 1 µM (EphA5(h); 1000 nM): 13%
inhibition at 0.01 µM (Ron(h); 10 nM): -16%
inhibition at 0.1 µM (Ron(h); 100 nM): -10%
inhibition at 1 µM (Ron(h); 1000 nM): 28%
inhibition at 0.01 µM (CDK1/cyclinB(h); 10 nM): 0%
inhibition at 0.1 µM (CDK1/cyclinB(h); 100 nM): 2%
inhibition at 1 µM (CDK1/cyclinB(h); 1000 nM): -11%
inhibition at 0.01 µM (Txk(h); 10 nM): 18%
inhibition at 0.1 µM (Txk(h); 100 nM): 27%
inhibition at 1 µM (Txk(h); 1000 nM): 49%
inhibition at 0.01 µM (DDR1(h); 10 nM): 6%
inhibition at 0.1 µM (DDR1(h); 100 nM): 27%
inhibition at 1 µM (DDR1(h); 1000 nM): 64%
inhibition at 0.01 µM (NLK(h); 10 nM): 0%
inhibition at 0.1 µM (NLK(h); 100 nM): -6%
inhibition at 1 µM (NLK(h); 1000 nM): 3%
inhibition at 0.01 µM (CaMKK2(h); 10 nM): -4%
inhibition at 0.1 µM (CaMKK2(h); 100 nM): -22%
inhibition at 1 µM (CaMKK2(h); 1000 nM): 4%
inhibition at 0.01 µM (Aurora-B(h); 10 nM): 7%
inhibition at 0.1 µM (Aurora-B(h); 100 nM): -4%
inhibition at 1 µM (Aurora-B(h); 1000 nM): 5%
inhibition at 0.01 µM (STK33(h); 10 nM): 3%
inhibition at 0.1 µM (STK33(h); 100 nM): 9%
inhibition at 1 µM (STK33(h); 1000 nM): 13%
inhibition at 0.01 µM (c-RAF(h); 10 nM): 13%
inhibition at 0.1 µM (c-RAF(h); 100 nM): 14%
inhibition at 1 µM (c-RAF(h); 1000 nM): 5%
inhibition at 0.01 µM (STK32C(h); 10 nM): 11%
inhibition at 0.1 µM (STK32C(h); 100 nM): 8%
inhibition at 1 µM (STK32C(h); 1000 nM): 7%
inhibition at 0.01 µM (Wee1B(h); 10 nM): 9%
inhibition at 0.1 µM (Wee1B(h); 100 nM): -2%
inhibition at 1 µM (Wee1B(h); 1000 nM): 9%
inhibition at 0.01 µM (PAK3(h); 10 nM): -1%
inhibition at 0.1 µM (PAK3(h); 100 nM): -3%
inhibition at 1 µM (PAK3(h); 1000 nM): 7%
inhibition at 0.01 µM (MKK7β(h); 10 nM): 9%
inhibition at 0.1 µM (MKK7β(h); 100 nM): -2%
inhibition at 1 µM (MKK7β(h); 1000 nM): 12%
